According to PubChem BioAssay AID256 (DTP/NCI, 2004):
“And” between values parts separate entries of the source, which are not always exact repeats. Equal values may be shown once. Inconclusive results and toxic doses are left out.

Test system: CD2F1 mice, L1210 leukemia ip, survival T/C
Experiment: NCI In Vivo Anticancer Drug Screen. Data for tumor model L1210 Leukemia (intraperitoneal) in CD2F1 (CDF1) mice
Settings: endpoint: mean survival time, higher = longer survival
Procedure, shortened: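 Activity against a transplanted murine tumor was judged by comparing the compound group with a vehicle group. The outcome in the treated animals was divided by that in the controls.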

[1] = dose: 12.5 mg/kg/injection, schedule: Q01DX009 (ip), vehicle: water
[2] = dose: 25.0 mg/kg/injection, schedule: Q01DX009 (ip), vehicle: water
[3] = dose: 50.0 mg/kg/injection, schedule: Q01DX009 (ip), vehicle: water
[4] = dose: 100.0 mg/kg/injection, schedule: Q01DX009 (ip), vehicle: water
[5] = dose: 100.0 mg/kg/injection, schedule: Q04DX003 (ip), vehicle: saline with Tween-80
[6] = dose: 200.0 mg/kg/injection, schedule: Q01DX009 (ip), vehicle: water
[7] = dose: 200.0 mg/kg/injection, schedule: Q04DX003 (ip), vehicle: saline with Tween-80
[8] = dose: 400.0 mg/kg/injection, schedule: Q04DX003 (ip), vehicle: saline with Tween-80

For `CCCCNC(C)[C@]1(O)Cc2c(O)c3c(c(O)c2[C@@H](OC2CC(N)C(O)C(C)O2)C1)C(=O)c1c(OC)cccc1C3=O` (stereo partly drawn), the T/C (dose: 0.15 mg/kg/injection, schedule: Q01DX009 (ip), vehicle: water) was 106 % of control, the T/C (dose: 0.31 mg/kg/injection, schedule: Q01DX009 (ip), vehicle: water) was 114 % of control and the T/C (dose: 0.62 mg/kg/injection, schedule: Q01DX009 (ip), vehicle: water) was 111 % of control. The T/C (dose: 1.25 mg/kg/injection, schedule: Q01DX009 (ip), vehicle: water) was 112 % of control, the T/C (dose: 2.5 mg/kg/injection, schedule: Q01DX009 (ip), vehicle: water) was 122 % of control and the T/C (dose: 5.0 mg/kg/injection, schedule: Q01DX009 (ip), vehicle: water) was 118 % of control. For the same compound, the T/C (dose: 10.0 mg/kg/injection, schedule: Q01DX009 (ip), vehicle: water) was 88 % of control.
With `Cc1ccc2nc(NC(=O)N(CCCl)N=O)sc2c1` the T/C (dose: 118.0 mg/kg/injection, schedule: Q01DX009 (ip), vehicle: other) was 197 % of control, the T/C (dose: 177.0 mg/kg/injection, schedule: Q01DX001 (ip), vehicle: other) was 162 % of control and the T/C (dose: 177.0 mg/kg/injection, schedule: Q01DX009 (ip), vehicle: other) was 96 % of control. The T/C (dose: 266.0 mg/kg/injection, schedule: Q01DX001 (ip), vehicle: other) was 154 % of control, the T/C (dose: 266.0 mg/kg/injection, schedule: Q01DX009 (ip), vehicle: other) was 111 % of control and the T/C (dose: 400.0 mg/kg/injection, schedule: Q01DX001 (ip), vehicle: other) was 156 % of control. For the same compound, the T/C (dose: 400.0 mg/kg/injection, schedule: Q01DX009 (ip), vehicle: other) was 88 % of control and the T/C (dose: 600.0 mg/kg/injection, schedule: Q01DX001 (ip), vehicle: other) was 234 % of control.
For `O=C(O)c1c2c(nc3ccccc13)Cc1ccccc1-2`, the T/C [1] was 104 % of control and 109 % of control, the T/C [2] was 103 % of control and 108 % of control and the T/C (dose: 50.0 mg/kg/injection, schedule: Q01DX009 (ip), vehicle: saline with Tween-80) was 96 % of control. For the same compound, the T/C [3] was 105 % of control and 110 % of control, the T/C (dose: 100.0 mg/kg/injection, schedule: Q01DX009 (ip), vehicle: saline with Tween-80) was 104 % of control and the T/C [4] was 100 % of control and 112 % of control. For the same compound, the T/C [5] was 98 % of control, the T/C (dose: 200.0 mg/kg/injection, schedule: Q01DX009 (ip), vehicle: saline with Tween-80) was 101 % of control and the T/C [6] was 114 % of control. For the same compound, the T/C [7] was 104 % of control.
In the case of `CC(=O)OC(N=Nc1ccccc1)(c1ccccc1)c1ccccc1`, the T/C [5] is reported as 98 % of control, the T/C [7] is reported as 92 % of control and the T/C [8] is reported as 93 % of control.
For `COc1ccc(C(O)c2ncccc2C)cc1OC` (stereo not drawn), the T/C [1] was 100 % of control, the T/C [2] was 98 % of control and the T/C [3] was 104 % of control. The T/C [4] was 100 % of control and the T/C [6] was 95 % of control.
With `CC(=O)O.[La]` the T/C (dose: 200.0 mg/kg/injection, schedule: Q01DX001 (ip), vehicle: saline) was 94 % of control.
With `CCCCCCCCCCCCCCCC(=O)N(CCCN(CC)CC)C(C)CCCN(CC)CC` (stereo not drawn) the T/C (dose: 1.56 mg/kg/injection, schedule: Q01DX009 (ip), vehicle: water) was 102 % of control, the T/C (dose: 3.13 mg/kg/injection, schedule: Q01DX009 (ip), vehicle: water) was 100 % of control and the T/C (dose: 6.25 mg/kg/injection, schedule: Q01DX009 (ip), vehicle: water) was 96 % of control.
In the case of `CC(F)(F)Cc1ccccc1`, the T/C (dose: 100.0 mg/kg/injection, schedule: Q01DX001 (ip), vehicle: saline with Tween-80) is reported as 110 % of control, the T/C [5] is reported as 98 % of control and the T/C (dose: 200.0 mg/kg/injection, schedule: Q01DX001 (ip), vehicle: saline with Tween-80) is reported as 102 % of control. For the same compound, the T/C [7] was 95 % of control, the T/C (dose: 400.0 mg/kg/injection, schedule: Q01DX001 (ip), vehicle: saline with Tween-80) was 102 % of control and the T/C [8] was 98 % of control.
